How the values were obtained:
Assay type in all cases: toxicity, cell-based
[1] = tested on: HEK-293T; assay: Incucyte cell viability with HEK293T; conditions: human, 10 µM, compound concentration 10 uM
[2] = tested on: U2OS; assay: Incucyte cell viability with U2OS; conditions: human, 10 µM, compound concentration 10 uM
[3] = tested on: Fibroblast; assay: Incucyte cell viability with human fibroblast; conditions: 10 µM, compound concentration 10 uM
Further: unitless GR value; below 1 slowed growth and below 0 cell loss.

Compound	Growth Rate ([1]; 0 h, replicate number 1)	Growth Rate ([1]; 0 h, replicate number 2)	Growth Rate ([1]; 6 h, replicate number 1)	Growth Rate ([2]; 6 h, replicate number 2)	Growth Rate ([2]; 12 h, replicate number 2)	Growth Rate ([2]; 18 h, replicate number 2)	Growth Rate ([2]; 24 h, replicate number 1)	Growth Rate ([2]; 24 h, replicate number 2)	Growth Rate ([3]; 6 h, replicate number 1)	Growth Rate ([3]; 12 h, replicate number 1)	Growth Rate ([3]; 12 h, replicate number 2)	Growth Rate ([3]; 18 h, replicate number 1)	Growth Rate ([3]; 18 h, replicate number 2)	Growth Rate ([3]; 24 h, replicate number 2)	Growth Rate ([1]; 6 h, replicate number 2)	Growth Rate ([2]; 6 h, replicate number 1)	Growth Rate ([3]; 0 h, replicate number 2)	Growth Rate ([1]; 18 h, replicate number 1)	Growth Rate ([1]; 24 h, replicate number 1)	Growth Rate ([3]; 0 h, replicate number 1)	other results
O=S(=O)(Nc1nnc2cc(OCC34CC5CC(CC(C5)C3)C4)c(C3CC3)cn12)C1CC1	0.55	0.41	0.8	0.37	0.76	0.91	0.94	0.89	0.92	-1	0.16	0.51	0.43	0.63	–	–	–	–	–	–	Growth Rate ([2]; 12 h, replicate number 1): 0.94; Growth Rate ([3]; 6 h, replicate number 2): -1
Nc1nccc(-c2c(-c3ccc(F)cc3)ncn2C2CCN(Cc3ccon3)CC2)n1	0.09	–	–	0.8	0.75	0.72	–	0.66	–	–	–	–	–	–	0.91	0.99	-0.11	–	–	–	–
O=C1CCCc2[nH]c(-c3ccnc(NCC4CC4)c3)c(Nc3ccccc3)c21	–	–	–	–	–	–	0.59	1	-0.03	0.34	0.57	0.49	0.89	0.88	0.41	0.51	–	0.94	0.88	-1	Growth Rate ([1]; 12 h, replicate number 2): 0.66; Growth Rate ([1]; 18 h, replicate number 2): 0.62; Growth Rate ([1]; 24 h, replicate number 2): 0.7; Growth Rate ([2]; 0 h, replicate number 1): 0.75; Growth Rate ([2]; 12 h, replicate number 1): 0.68; Growth Rate ([2]; 18 h, replicate number 1): 0.72; Growth Rate ([3]; 24 h, replicate number 1): 0.45
O=C1NC(c2cccc([N+](=O)[O-])c2)=CCN1c1ccccc1O [ICILLIN]	–	0.85	–	0.82	0.76	0.96	–	0.93	-0.8	0.02	0.48	–	0.89	0.91	–	–	-0.28	–	–	0.99	Growth Rate ([2]; 0 h, replicate number 2): 1; Growth Rate ([3]; 6 h, replicate number 2): 0.04
O=C(NCc1cccnc1OCC(F)(F)F)c1cncc(-c2ccc(Cl)cc2)c1	–	–	0.82	–	–	–	–	–	–	–	0.57	-0.38	0.96	–	–	0.44	–	0.84	0.81	–	Growth Rate ([2]; 0 h, replicate number 2): -0.65; Growth Rate ([2]; 12 h, replicate number 1): 0.98; Growth Rate ([3]; 6 h, replicate number 2): -1; Growth Rate ([3]; 24 h, replicate number 1): 0.21
Cc1[nH]nc2ccc(-c3cncc(OCC(N)Cc4ccccc4)c3)cc12 (stereo not given)	-0.76	-0.85	–	–	–	0.7	0.35	0.28	-1	–	–	–	–	0.73	–	–	-0.26	–	0.9	–	Growth Rate ([1]; 18 h, replicate number 2): 0.44; Growth Rate ([1]; 24 h, replicate number 2): 0.21
COCCCS(=O)(=O)c1cc(C)c(-c2ccc(F)c3c2CC[C@H]3Oc2ccc3c(c2)OC[C@H]3CC(=O)O)c(C)c1	–	-0.02	0.78	0.65	0.95	0.88	–	0.9	1	–	–	–	–	–	–	0.63	0.7	0.82	0.81	–	Growth Rate ([1]; 12 h, replicate number 1): 0.83; Growth Rate ([2]; 0 h, replicate number 2): -1; Growth Rate ([2]; 18 h, replicate number 1): 0.79
CN(C)[C@H]1CCc2nc(NC(=O)c3cccc(Cn4cc(-c5ccc(C#N)cc5)cn4)c3)sc2C1.O=C(O)C(F)(F)F	–	-0.96	0.98	–	–	0.89	–	0.75	–	–	–	–	–	0.57	0.68	–	-0.64	0.59	0.51	-0.59	Growth Rate ([1]; 12 h, replicate number 1): 0.52; Growth Rate ([1]; 12 h, replicate number 2): 0.74; Growth Rate ([1]; 18 h, replicate number 2): 0.68; Growth Rate ([1]; 24 h, replicate number 2): 0.62
CCn1c(-c2nonc2N)nc2cncc(C(=O)N3CC[C@H](N)C3)c21.Cl	-0.71	-0.15	–	–	–	0.88	–	0.79	–	–	–	–	–	–	–	–	-0.88	–	–	-1	Growth Rate ([2]; 0 h, replicate number 1): -1
Cc1nc2ccc(Oc3ccc(F)cc3)cc2c(=O)n1C[C@H]1CCCN(C(C)C)C1.Cl	–	–	0.43	–	–	–	0.95	–	0.24	0.12	0.34	0.13	0.69	0.73	0.87	0.84	–	0.16	0.17	-1	Growth Rate ([1]; 12 h, replicate number 1): 0.27; Growth Rate ([1]; 12 h, replicate number 2): 0.35; Growth Rate ([1]; 18 h, replicate number 2): 0.4; Growth Rate ([1]; 24 h, replicate number 2): 0.23; Growth Rate ([2]; 0 h, replicate number 1): 0.57; Growth Rate ([2]; 0 h, replicate number 2): -0.36; Growth Rate ([3]; 24 h, replicate number 1): 0.18
